What was measured:
[1] = target: Transient receptor potential cation channel subfamily V member 1 (Homo sapiens) (UniProt Q8NER1); assay: Activity at human TRPV1 receptor expressed in HEK293 cells assessed as calcium influx in presence of 5-iodo-resiniferatoxin; type: cell-based
[2] = target: Transient receptor potential cation channel subfamily V member 1 (Homo sapiens) (UniProt Q8NER1); assay: Activity at human TRPV1 receptor expressed in HEK293 cells assessed as calcium influx relative to ionomycin; type: cell-based

Chain of Transient receptor potential cation channel subfamily V member 1 (Homo sapiens) (Q8NER1 whole entry): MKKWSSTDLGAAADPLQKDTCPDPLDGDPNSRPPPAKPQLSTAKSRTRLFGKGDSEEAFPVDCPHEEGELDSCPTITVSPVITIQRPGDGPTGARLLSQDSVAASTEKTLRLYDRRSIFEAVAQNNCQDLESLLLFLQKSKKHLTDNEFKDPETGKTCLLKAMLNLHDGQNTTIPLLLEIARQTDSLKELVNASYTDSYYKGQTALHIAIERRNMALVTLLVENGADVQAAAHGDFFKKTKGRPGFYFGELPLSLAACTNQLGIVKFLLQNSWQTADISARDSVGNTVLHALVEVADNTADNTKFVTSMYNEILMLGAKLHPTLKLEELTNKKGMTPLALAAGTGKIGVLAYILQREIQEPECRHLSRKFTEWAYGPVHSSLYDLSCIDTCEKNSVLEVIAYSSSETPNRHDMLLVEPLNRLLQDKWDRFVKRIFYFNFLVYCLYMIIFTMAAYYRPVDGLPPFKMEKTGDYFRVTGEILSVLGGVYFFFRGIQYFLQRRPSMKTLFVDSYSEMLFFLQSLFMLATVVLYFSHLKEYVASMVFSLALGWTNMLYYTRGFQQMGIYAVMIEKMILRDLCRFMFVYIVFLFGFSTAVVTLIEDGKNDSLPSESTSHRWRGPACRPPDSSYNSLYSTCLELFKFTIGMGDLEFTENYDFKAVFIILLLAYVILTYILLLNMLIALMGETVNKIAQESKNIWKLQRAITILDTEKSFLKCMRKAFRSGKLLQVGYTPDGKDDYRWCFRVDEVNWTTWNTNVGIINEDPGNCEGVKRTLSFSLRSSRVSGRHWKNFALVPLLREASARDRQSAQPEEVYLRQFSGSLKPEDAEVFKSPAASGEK

| Activity [2] | SMILES | Activity [1] |
| --- | --- | --- |
| 0% | CC1(C)CC[C@@H](O)[C@@]2(C)C1CC=C(C=O)[C@@H]2C=O (some centres undefined) |  |
| 0% | COc1ccc(/C=C/C(=O)O[C@@H]2CCC(C)(C)C3CC=C(CO)[C@H](CO)[C@]32C)cc1 (some centres undefined) |  |

| SMILES | Activity [2] | Activity [1] |
| --- | --- | --- |
| COc1ccc(/C=C/C(=O)O[C@@H]2CCC(C)(C)C3CC=C(C=O)[C@H](C=O)[C@]32C)cc1 (some centres undefined) | 40.4% | 22% |
